Test results taken from ChEMBL document CHEMBL1201862, “PubChem BioAssay data set” (2004).
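Interpolation was linear, between the two tested concentrations surrounding the appropriate level; five concentrations were tested over 48 hours in 96-well plates. At the GI50, growth is halved.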 Activity calls are given as the source filed them. No stated cut-off is given here; in the data, active = GI50 up to about 1.1 µM and inactive = higher.

Tests used:
Experiment in all cases: DTP human tumour cell line panel, 48 h
RXF 393 = system: RXF 393
HCC 2998 = system: HCC 2998
HCT-15 = system: HCT-15
OVCAR-3 = system: OVCAR-3
OVCAR-5 = system: OVCAR-5
786-0 = system: 786-0
NCI/ADR-RES = system: NCI/ADR-RES
SF-295 = system: SF-295
SN12C = system: SN12C
CAKI-1 = system: CAKI-1
MCF7 = system: MCF7
MDA-N = system: MDA-N
U-251 = system: U-251
DU-145 = system: DU-145
PC-3 = system: PC-3
UACC-257 = system: UACC-257
BT-549 = system: BT-549
A549 = system: A549
SF-268 = system: SF-268
UO-31 = system: UO-31
HT-29 = system: HT-29
SK-MEL-28 = system: SK-MEL-28
NCI-H460 = system: NCI-H460
ACHN = system: ACHN
OVCAR-4 = system: OVCAR-4
MDA-MB-435 = system: MDA-MB-435
SK-MEL-2 = system: SK-MEL-2
Hs-578T = system: Hs-578T
SW-620 = system: SW-620
NCI-H23 = system: NCI-H23
K562 = system: K562
SK-OV-3 = system: SK-OV-3
SF-539 = system: SF-539
HOP-62 = system: HOP-62
EKVX = system: EKVX
MOLT-4 = system: MOLT-4
MDA-MB-231 = system: MDA-MB-231
HOP-92 = system: HOP-92
M14 = system: M14
IGROV-1 = system: IGROV-1
SK-MEL-5 = system: SK-MEL-5
UACC-62 = system: UACC-62
NCI-H226 = system: NCI-H226
OVCAR-8 = system: OVCAR-8
NCI-H522 = system: NCI-H522
SR = system: SR
SNB-19 = system: SNB-19
A498 = system: A498
TK-10 = system: TK-10
HCT-116 = system: HCT-116
Malme-3M = system: Malme-3M
HL-60 = system: HL-60
CCRF-CEM = system: CCRF-CEM
COLO 205 = system: COLO 205
KM12 = system: KM12
RPMI-8226 = system: RPMI-8226
SNB-75 = system: SNB-75
LOX IMVI = system: LOX IMVI

For NC(CCC(=O)NC(CSC(=O)N(O)c1ccc(Br)cc1)C(=O)NCC(=O)O)C(=O)O (stereo not drawn), which GI50 (RXF 393) is on record?
The GI50 was > 50 µM (inactive).

What about the GI50 (HCC 2998) of the same compound?
Its GI50 is > 50 µM (inactive).

And the GI50 (HCT-15)?
The GI50 was over 50 µM.

And the GI50 (OVCAR-3)?
The GI50 was > 50 µM (inactive).

What about the GI50 (OVCAR-5) of the same compound?
The GI50 was > 50 µM (inactive).

And the GI50 (786-0)?
The GI50 was > 50 µM (inactive).

What about the GI50 (NCI/ADR-RES) of the same compound?
The GI50 was > 50 µM (inactive).

What about the GI50 (SF-295) of the same compound?
The GI50 was > 50 µM (inactive).

And the GI50 (SN12C)?
The GI50 was > 50 µM (inactive).

What about the GI50 (CAKI-1) of the same compound?
The GI50 was > 50 µM (inactive).

What about the GI50 (MCF7) of the same compound?
The GI50 was > 50 µM (inactive).

And the GI50 (MDA-N)?
The GI50 was > 50 µM (inactive).

What about the GI50 (U-251) of the same compound?
Its GI50 is > 50 µM (inactive).

And the GI50 (DU-145)?
The GI50 was > 50 µM (inactive).

And the GI50 (PC-3)?
The GI50 was > 50 µM (inactive).

And the GI50 (UACC-257)?
Its GI50 is > 50 µM (inactive).

And the GI50 (BT-549)?
Its GI50 is > 50 µM (inactive).

And the GI50 (A549)?
The GI50 was > 50 µM (inactive).

And the GI50 (SF-268)?
The GI50 was > 50 µM (inactive).

And the GI50 (UO-31)?
Its GI50 is > 50 µM (inactive).

What about the GI50 (HT-29) of the same compound?
The GI50 was > 50 µM (inactive).

What about the GI50 (SK-MEL-28) of the same compound?
Its GI50 is > 50 µM (inactive).

What about the GI50 (NCI-H460) of the same compound?
Its GI50 is > 50 µM (inactive).

And the GI50 (ACHN)?
Its GI50 is > 50 µM (inactive).

And the GI50 (OVCAR-4)?
Its GI50 is > 50 µM (inactive).

And the GI50 (MDA-MB-435)?
The GI50 was > 50 µM (inactive).

What about the GI50 (SK-MEL-2) of the same compound?
The GI50 was > 50 µM (inactive).

And the GI50 (Hs-578T)?
The GI50 was 27.4 µM (inactive).

And the GI50 (SW-620)?
The GI50 was > 50 µM (inactive).

What about the GI50 (NCI-H23) of the same compound?
Its GI50 is > 50 µM (inactive).

And the GI50 (K562)?
The GI50 was > 50 µM (inactive).

And the GI50 (SK-OV-3)?
Its GI50 is > 50 µM (inactive).

What about the GI50 (SF-539) of the same compound?
Its GI50 is > 50 µM (inactive).

What about the GI50 (HOP-62) of the same compound?
The GI50 was > 50 µM (inactive).

What about the GI50 (EKVX) of the same compound?
Its GI50 is > 50 µM (inactive).

And the GI50 (MOLT-4)?
The GI50 was > 50 µM (inactive).

What about the GI50 (MDA-MB-231) of the same compound?
The GI50 was > 50 µM (inactive).

CCOC(=O)/C(=C\NC(C)(C)C)c1nc2ccccc2[nH]1 was tested. Which GI50 (HOP-92) did it give?
The GI50 was 25.2 µM (inactive).

And the GI50 (M14)?
The GI50 was 20.1 µM (inactive).

And the GI50 (IGROV-1)?
Its GI50 is 22 µM (inactive).

And the GI50 (SK-MEL-5)?
Its GI50 is 12.9 µM (inactive).

And the GI50 (RXF 393)?
Its GI50 is 23.5 µM (inactive).

And the GI50 (HCT-15)?
Its GI50 is 34.2 µM.

And the GI50 (OVCAR-3)?
The GI50 was 17.5 µM (inactive).

And the GI50 (UACC-62)?
The GI50 was 16.3 µM (inactive).

And the GI50 (OVCAR-5)?
Its GI50 is 21.5 µM (inactive).

And the GI50 (786-0)?
Its GI50 is 27.1 µM (inactive).

What about the GI50 (NCI/ADR-RES) of the same compound?
Its GI50 is 32 µM (inactive).

What about the GI50 (SF-295) of the same compound?
The GI50 was 20.2 µM (inactive).

And the GI50 (SN12C)?
Its GI50 is 28.3 µM (inactive).

What about the GI50 (CAKI-1) of the same compound?
The GI50 was 29.2 µM (inactive).

And the GI50 (MCF7)?
Its GI50 is 18.6 µM (inactive).

What about the GI50 (MDA-N) of the same compound?
The GI50 was 22.9 µM (inactive).

What about the GI50 (NCI-H226) of the same compound?
Its GI50 is 22.9 µM (inactive).

And the GI50 (DU-145)?
Its GI50 is 29.9 µM (inactive).

And the GI50 (OVCAR-8)?
The GI50 was 26.1 µM (inactive).

What about the GI50 (UACC-257) of the same compound?
The GI50 was 18.5 µM (inactive).

And the GI50 (BT-549)?
Its GI50 is 27.9 µM (inactive).

And the GI50 (A549)?
The GI50 was 29.4 µM (inactive).

What about the GI50 (NCI-H522) of the same compound?
The GI50 was 20.2 µM (inactive).

And the GI50 (SR)?
The GI50 was 12.7 µM (inactive).

What about the GI50 (SNB-19) of the same compound?
Its GI50 is 39.3 µM (inactive).

And the GI50 (A498)?
Its GI50 is 25.1 µM (inactive).

What about the GI50 (SF-268) of the same compound?
The GI50 was 23.7 µM (inactive).

What about the GI50 (UO-31) of the same compound?
The GI50 was 0.466 µM (active).

And the GI50 (HT-29)?
The GI50 was 17.9 µM (inactive).

And the GI50 (TK-10)?
Its GI50 is 14 µM (inactive).

What about the GI50 (SK-MEL-28) of the same compound?
The GI50 was 16.4 µM (inactive).

And the GI50 (NCI-H460)?
Its GI50 is 17.7 µM (inactive).

What about the GI50 (HCT-116) of the same compound?
Its GI50 is 29.5 µM (inactive).

And the GI50 (Malme-3M)?
Its GI50 is 20.6 µM (inactive).

What about the GI50 (HL-60) of the same compound?
The GI50 was 13.2 µM (inactive).

What about the GI50 (CCRF-CEM) of the same compound?
Its GI50 is 17.7 µM (inactive).

What about the GI50 (COLO 205) of the same compound?
Its GI50 is 16 µM (inactive).

What about the GI50 (ACHN) of the same compound?
The GI50 was 20.4 µM (inactive).

And the GI50 (OVCAR-4)?
The GI50 was 24.5 µM (inactive).

What about the GI50 (MDA-MB-435) of the same compound?
Its GI50 is 20 µM (inactive).

What about the GI50 (KM12) of the same compound?
Its GI50 is 19.9 µM (inactive).

And the GI50 (Hs-578T)?
The GI50 was 19.6 µM (inactive).

And the GI50 (SW-620)?
Its GI50 is 25.3 µM (inactive).

What about the GI50 (RPMI-8226) of the same compound?
The GI50 was 17.2 µM (inactive).

And the GI50 (SNB-75)?
The GI50 was 23.7 µM (inactive).

What about the GI50 (NCI-H23) of the same compound?
The GI50 was 17.7 µM (inactive).

And the GI50 (LOX IMVI)?
The GI50 was 21.9 µM (inactive).

And the GI50 (SK-OV-3)?
Its GI50 is 30.1 µM (inactive).

And the GI50 (SF-539)?
The GI50 was 16.8 µM (inactive).

And the GI50 (HOP-62)?
The GI50 was 22.4 µM (inactive).

What about the GI50 (EKVX) of the same compound?
The GI50 was 12.2 µM (inactive).
